Series [1] can be described thus: Cytotoxicity against mouse TM3 cells assessed as cell viability after 48 hrs by Cell Titer Glo assay. The class given is cell-based. The note with it: read-out: LD50. In general terms: In ATP-based viability assays light output follows the ATP content of the culture.
Series [2] is described as follows: Inhibition of Hh signaling pathway in mouse TM3 cells assessed as downregulation of Gli1 gene expression after 48 hrs by luciferase reporter gene assay. The class given is cell-based. The settings on record: TM3, 48 h.
Series [3] addresses Protein smoothened (Homo sapiens) (UniProt Q99835). Put plainly: Displacement of BODIPY-cyc from SMO receptor (unknown origin) transfected in HEK293T cells at 10 uM after 16 hrs by laser-scanning confocal microscopic analysis. The settings on record: HEK-293T. Format: cell-based.
Series [4] in a line: Inhibition of luciferase (unknown origin) expressed in BMP-responsive element stable reporter cells. The class given is cell-based.
For series [5], the target named is 3',5'-cyclic-AMP phosphodiesterase 4D (Homo sapiens, UniProt Q08499). Kind of series: Inhibition of PDE4D (unknown origin) preincubated for 5 mins followed by cAMP addition measured after 15 mins by PDE-Glo phosphodiesterase assay.
Chain of 3',5'-cyclic-AMP phosphodiesterase 4D (Q08499 whole entry): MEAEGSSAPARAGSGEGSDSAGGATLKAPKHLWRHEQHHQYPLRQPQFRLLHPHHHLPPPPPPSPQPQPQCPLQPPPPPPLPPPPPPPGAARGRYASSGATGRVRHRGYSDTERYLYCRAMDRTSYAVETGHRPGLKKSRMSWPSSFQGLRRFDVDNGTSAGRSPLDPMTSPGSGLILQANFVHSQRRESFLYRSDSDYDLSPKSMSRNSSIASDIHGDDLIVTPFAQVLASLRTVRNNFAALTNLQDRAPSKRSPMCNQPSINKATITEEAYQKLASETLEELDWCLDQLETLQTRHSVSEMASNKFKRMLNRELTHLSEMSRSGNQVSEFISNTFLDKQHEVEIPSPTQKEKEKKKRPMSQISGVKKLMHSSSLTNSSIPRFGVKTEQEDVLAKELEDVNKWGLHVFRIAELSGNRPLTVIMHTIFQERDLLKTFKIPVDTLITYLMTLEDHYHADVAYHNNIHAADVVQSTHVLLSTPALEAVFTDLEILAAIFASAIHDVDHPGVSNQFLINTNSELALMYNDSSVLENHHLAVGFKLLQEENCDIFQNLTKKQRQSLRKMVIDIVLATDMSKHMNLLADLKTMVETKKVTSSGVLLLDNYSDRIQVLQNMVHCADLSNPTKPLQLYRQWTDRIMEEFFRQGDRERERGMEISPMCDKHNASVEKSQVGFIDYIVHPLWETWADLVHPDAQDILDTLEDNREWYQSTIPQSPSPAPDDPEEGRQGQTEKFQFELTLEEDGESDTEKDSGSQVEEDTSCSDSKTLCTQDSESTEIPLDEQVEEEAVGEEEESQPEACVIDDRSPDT
Series [6] can be described thus: Inhibition of Hh signaling pathway in Sufu deficient MEF cells assessed as downregulation of Gli1 mRNA expression at 10 uM after 24 hrs by qRT-PCR analysis. Format: cell-based. The settings on record: Mus musculus. Background: Real-time PCR tracks product formation cycle by cycle.
Series [7] in a line: Inhibition of Hh signaling pathway in Sufu deficient MEF cells assessed as downregulation of Ptch1 mRNA expression at 10 uM after 24 hrs by qRT-PCR analysis. The class given is cell-based. The note with it: Mus musculus.
Series [8] is described as follows: Inhibition of Hh signaling pathway in Sufu deficient MEF cells assessed as downregulation of Ptch1 mRNA expression at 0.1 uM after 24 hrs by qRT-PCR analysis. Format: cell-based. The settings on record: Mus musculus.
Series [9] can be described thus: Inhibition of Hh signaling pathway in Sufu deficient MEF cells assessed as downregulation of Gli1 mRNA expression at 0.1 uM after 24 hrs by qRT-PCR analysis. Format: cell-based. The note with it: Mus musculus.
Series [10] addresses Protein smoothened (Homo sapiens) (UniProt Q99835). Put plainly: Displacement of BODIPY-cyc from SMO receptor (unknown origin) transfected in HEK293T cells at 1 uM after 16 hrs by laser-scanning confocal microscopic analysis. The class given is cell-based. The settings on record: HEK-293T.
Series [11] is described as follows: Inhibition of Hh signaling pathway in Shh-LIGHT2 incorporated mouse NIH 3T3 cells assessed as downregulation of Gli1 gene expression by luciferase reporter gene assay. The class given is cell-based. The settings on record: NIH3T3. In general terms: Reporter assays use an easily measured gene product as a stand-in for the process of interest.
In series [12] the target is Protein smoothened (Homo sapiens) (UniProt Q99835). Put plainly: Displacement of BODIPY-cyc from SMO receptor (unknown origin) transfected in HEK293T cells at 200 nM after 16 hrs by laser-scanning confocal microscopic analysis. The class given is cell-based. The settings on record: HEK-293T.
Chain of Protein smoothened (Homo sapiens) (Q99835 whole entry): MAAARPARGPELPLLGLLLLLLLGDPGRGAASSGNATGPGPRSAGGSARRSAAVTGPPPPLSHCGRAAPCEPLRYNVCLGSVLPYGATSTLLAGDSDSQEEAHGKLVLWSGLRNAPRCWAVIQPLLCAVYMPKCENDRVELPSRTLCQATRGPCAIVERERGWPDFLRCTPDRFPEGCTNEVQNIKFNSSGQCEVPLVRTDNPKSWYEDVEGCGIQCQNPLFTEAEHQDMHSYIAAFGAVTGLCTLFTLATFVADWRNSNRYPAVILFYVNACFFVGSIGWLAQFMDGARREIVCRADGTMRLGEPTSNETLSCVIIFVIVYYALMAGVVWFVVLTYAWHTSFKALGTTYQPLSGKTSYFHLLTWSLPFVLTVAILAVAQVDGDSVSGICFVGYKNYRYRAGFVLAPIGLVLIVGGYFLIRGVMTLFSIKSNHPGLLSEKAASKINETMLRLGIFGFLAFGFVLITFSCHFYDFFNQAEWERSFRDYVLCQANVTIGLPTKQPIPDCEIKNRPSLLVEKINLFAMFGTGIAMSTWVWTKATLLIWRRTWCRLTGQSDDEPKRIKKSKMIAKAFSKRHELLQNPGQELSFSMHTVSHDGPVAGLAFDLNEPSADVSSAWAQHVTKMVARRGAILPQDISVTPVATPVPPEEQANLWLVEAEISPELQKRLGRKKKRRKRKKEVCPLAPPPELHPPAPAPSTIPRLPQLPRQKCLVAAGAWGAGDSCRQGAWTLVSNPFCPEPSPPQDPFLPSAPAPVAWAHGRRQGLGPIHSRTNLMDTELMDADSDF

Activity calls are given as the source filed them. No cut-off for these calls is given here.

For `C=C(C)Cn1c(SCC(=O)c2cccs2)nc2sc3c(c2c1=O)CCSC3`, the CC50 at 48 h in [1] was greater than 50 µM. Besides, in series [2] (read-out: EC50), the EC50 stood at 4.57 µM.
Turning to `C=C(C)Cn1c(SCC(=O)N2CCOCC2)nc2sc3c(c2c1=O)CCCC3`, the CC50 at 48 h in series [1] is greater than 50 µM. In [2] (read-out: EC50), the EC50 is greater than 20 µM.
For orientation: inhibition means the drop in the measured response relative to a control, in per cent. As usually defined, the IC50 is the concentration that inhibits the measured activity by half. As to `O=c1c2ccsc2nc(SCC(O)c2ccccc2)n1C1CC1` (configuration not stated), the CC50 at 48 h in series [1] is greater than 50 µM. Also, the inhibition entry in [3] and in series [4] was “inactive” in each case. Further, 6.07 µM corresponded to half-maximal inhibition in series [5] (IC50). The values for the inhibition in series [6] and in series [7] were 3.2% and -4.8%, respectively.
`C=C(C)Cn1c(SCC(=O)c2cccs2)nc2sc3c(c2c1=O)CCOC3`: in [1], the CC50 at 48 h is greater than 50 µM. Besides, the EC50 in series [2] (read-out: EC50) was greater than 20 µM.
Take `O=C(CSc1nc2ccccc2c(=O)n1C1CC1)c1cccs1`: the CC50 at 48 h in series [1] is greater than 50 µM. The inhibition entry in series [3] and in series [4] was “inactive” each time. Further, the EC50 in [2] (read-out: EC50) came out at 0.685 µM. Also, the inhibition in [6] turned out to be 10.3%; in [7], 9.9%.
For the compound `CCCn1c(SCC(=O)c2cccs2)nc2sc3c(c2c1=O)CCCC3`, the CC50 at 48 h in [1] was greater than 50 µM. Also, in series [2] (read-out: EC50), the EC50 amounted to 1.3 µM. For the same compound, inhibition in series [5] was half-maximal at 0.486 µM (IC50). The inhibition amounted to 44.9% in series [6] and 39.9% in series [7].
`CS(=O)(=O)c1ccc(C(=O)Nc2ccc(Cl)c(-c3ccccn3)c2)c(Cl)c1` [VISMODEGIB]: in [1], the CC50 at 48 h was greater than 50 µM. Moreover, in series [2] (read-out: EC50), the EC50 turned out to be 0.013 µM.
Regarding `C=C(C)Cn1c(SCC(=O)N2CCCCC2C)nc2sc3c(c2c1=O)CCCC3` (configuration not stated), the CC50 at 48 h in series [1] was 16.7 µM. For the same compound, in series [2] (read-out: EC50), the EC50 is 2.32 µM. In addition, the inhibition in series [6] amounted to 35%; in [7] it was 49.2%.
For the compound `C=CCn1c(SCC(=O)c2cccs2)nc2sc3c(c2c1=O)CCCC3`, in series [1], the CC50 at 48 h is greater than 50 µM. The EC50 in [2] (read-out: EC50) is 2.36 µM.
As for `Cc1c(C(=O)Nc2ccc(N3C[C@@H](C)O[C@@H](C)C3)nc2)cccc1-c1ccc(OC(F)(F)F)cc1` [SONIDEGIB], the CC50 at 48 h in series [1] is greater than 50 µM. Also, the EC50 in series [2] (read-out: EC50) was found to be 0.0012 µM. Also, the inhibition was -0.2% in [8] and 5.8% in series [9].
Regarding `O=C(COc1nc2sccc2c(=O)n1C1CC1)c1ccccc1`, in series [1], the CC50 at 48 h is greater than 50 µM. Also, the EC50 in series [2] (read-out: EC50) was greater than 20 µM.
Take `O=C(CSc1nc2sccc2c(=O)n1C1CC1)c1ccccc1`: in series [1], the CC50 at 48 h is greater than 50 µM. Further, the inhibition entry in [4] and in [10] was “inactive” throughout. Further, in [2] (read-out: EC50), the EC50 stood at 0.082 µM. Besides, the inhibition in series [6] was 13.6%; in series [7], -0.3%.
On to `C=C(C)Cn1c(SCC(=O)c2ccccn2)nc2sc3c(c2c1=O)CCCC3`, for which the CC50 at 48 h in series [1] was greater than 50 µM. Moreover, the EC50 in series [2] (read-out: EC50) was greater than 20 µM.
As for `C=C(C)Cn1c(SCC(=O)c2ccccc2)nc2sc3c(c2c1=O)CCCC3`, the CC50 at 48 h in series [1] was greater than 50 µM. Moreover, the EC50 in series [2] (read-out: EC50) was found to be 5.7 µM. In [5], this compound had an IC50 of 0.965 µM. Further, the results for the inhibition in series [6] and in series [7] were 64.8% and 60.4%, respectively.
Take `C=C(C)Cn1c(SCC(=O)c2ccncc2)nc2sc3c(c2c1=O)CCCC3`: the CC50 at 48 h in series [1] is greater than 50 µM. Besides, the EC50 in series [2] (read-out: EC50) stood at 19.8 µM.
The like results for `O=C(CSc1nc2ccccc2c(=O)n1C1CC1)c1ccccc1` were, in that order, greater than 50 µM and 1.16 µM.
As for `C=C(C)Cn1c(SCC(=O)c2cccnc2)nc2sc3c(c2c1=O)CCCC3`, in series [1], the CC50 at 48 h was 35.4 µM. In addition, the EC50 in series [2] (read-out: EC50) was determined as 11.1 µM.
For `O=C(CSc1nc2sc3c(c2c(=O)n1C1CC1)CCCC3)c1cccs1`, the CC50 at 48 h in [1] is greater than 50 µM. Besides, in series [2] (read-out: EC50), the EC50 stood at 1.89 µM. For the same compound, the inhibition is 26.8% in series [6] and 26.5% in series [7].
Regarding `C=C(C)Cn1c(SCC(=O)N2CCCCC2)nc2sc3c(c2c1=O)CCCC3`, the CC50 at 48 h in [1] was found to be 24.6 µM. For the same compound, the EC50 in [2] (read-out: EC50) is 10.7 µM.
For the compound `O=C(CNc1nc2sccc2c(=O)n1C1CC1)c1ccccc1`, the CC50 at 48 h in [1] is greater than 50 µM. The EC50 in series [2] (read-out: EC50) was greater than 20 µM.
`C=C(C)Cn1c(SCC(=O)c2cccs2)nc2sc3c(c2c1=O)CCCC3`: the CC50 at 48 h in series [1] was greater than 50 µM. Moreover, the inhibition entry in [3] and in series [4] was “inactive” throughout. In addition, the EC50 in [2] (read-out: EC50) is 1.34 µM; in series [2] (read-out: pEC50 (converted)) it was less than 1 µM. Also, in series [5], the IC50 worked out at 0.38 µM. Also, the figures for the inhibition in series [6] and in series [7] were 46.5% and 32.2%, respectively.
In the case of `CN(C)c1ccccc1CN1CCCN(Cc2ccccc2N(C)C)C1c1ccncc1`, the CC50 at 48 h in series [1] is greater than 50 µM. The figures for the EC50 in series [2] (read-out: EC50) and in series [11] were 9.27 µM and 5 µM, respectively. Moreover, the inhibition in series [6] amounted to 43.8%; in [7], 52.8%.
On to `O=C(CSc1nc2sccc2c(=O)n1C1CC1)c1cccs1`, for which, in [1], the CC50 at 48 h was greater than 50 µM. Moreover, the inhibition entry in [3] and in series [4] was “inactive” throughout. For the same compound, in [2] (read-out: EC50), the EC50 turned out to be 0.933 µM. Besides, the inhibition was 5.5% in series [6] and -3.3% in series [7].
Take `O=C(CSc1nc2sc3c(c2c(=O)n1CC1CCC1)CCCC3)c1cccs1`: in [1], the CC50 at 48 h amounted to 45.6 µM. Besides, in series [2] (read-out: EC50), the EC50 was found to be 1.99 µM.
For `O=C(CSc1nc2sc3c(c2c(=O)n1-c1ccccc1)CCCC3)c1cccs1`, in [1], the CC50 at 48 h is greater than 50 µM. For the same compound, the EC50 in series [2] (read-out: EC50) was found to be 8.25 µM.
As to `CC(O)(CSc1nc2sccc2c(=O)n1C1CC1)c1ccccc1` (configuration not stated), in [1], the CC50 at 48 h is greater than 50 µM. Further, the EC50 in series [2] (read-out: EC50) was 0.948 µM.
Take `CC1=C2C[C@H]3[C@@H](CC=C4CC(=O)CC[C@@]43C)[C@@H]2CCC12OC1C[C@H](C)CN(CCNC(=O)CCCCCNC(=O)CCc3ccccc3)C1[C@H]2C` (single isomer, unassigned): in series [12], the inhibition result was “Active”.
Regarding `C=C(C)Cn1c(SCC(=O)c2cccs2)nc2sc3ccccc3c2c1=O`, in [1], the CC50 at 48 h was greater than 50 µM. Further, the EC50 in [2] (read-out: EC50) is greater than 20 µM.
As to `C=C(C)Cn1c(SCC(=O)c2cccs2)nc2sc3c(c2c1=O)CCNC3`, the CC50 at 48 h in [1] amounted to 20.1 µM. Moreover, the EC50 in series [2] (read-out: EC50) amounted to 6.4 µM.
On to `C=C(C)Cn1c(SCC(=O)c2cccs2)nc2ccccc2c1=O`, for which the CC50 at 48 h in [1] was greater than 50 µM. In addition, in series [2] (read-out: EC50), the EC50 was greater than 20 µM.
For the compound `O=C(CSc1nc2sc3c(c2c(=O)n1CC1CC1)CCCC3)c1cccs1`, the CC50 at 48 h in [1] was greater than 50 µM. Also, in [2] (read-out: EC50), the EC50 amounted to 2.07 µM.
For `C=C(C)Cn1c(SCC(=O)c2cccs2)nc2sccc2c1=O`, in series [1], the CC50 at 48 h is greater than 50 µM. For the same compound, the EC50 in series [2] (read-out: EC50) was found to be 0.931 µM.
Regarding `C=C(C)Cn1c(SCC(=O)c2nccs2)nc2sc3c(c2c1=O)CCCC3`, the CC50 at 48 h in series [1] was greater than 50 µM. For the same compound, the EC50 in [2] (read-out: EC50) was greater than 20 µM.

The record behind these values is ChEMBL document CHEMBL3784940 (Bioorg Med Chem Lett, 2016).
